≈ marks a conversion by molar mass, not a printed value. Entries after “also recorded” stand apart in the source; their conditions may differ. Read-outs that look alike come from different tables or passages of the source.
Legend:
[1] = test system: SARS coronavirus Strain 39849; conditions: Strain 39849/Vero E6; cited from earlier work
[2] = test system: SARS-associated coronavirus Strain FFM1; conditions: Strain FFM1/Caco-2; cited from earlier work
SARS-CoV Strain v2163 = conditions: in vivo, cited from earlier work
[3] = human; cited from earlier work
[4] = test system: SARS-associated coronavirus Strain FFM1; conditions: Strain FFM1/CL-14; cited from earlier work
[5] = test system: SARS coronavirus 2003VA2774; conditions: cited from earlier work
[6] = test system: avian H5N1 and H7N9 influenza hemagglutinins (HAs); conditions: in vivo; cited from earlier work
Mouse Hepatitis CoV MHV = conditions: Mouse Hepatitis CoV MHV/BALB/c mice/IP; 10 μg/dose; cited from earlier work
[7] = cited from earlier work
[8] = test system: normal, human-derived tracheal/bronchial epithelial (TBE) cells
H5N1 influenza virus = conditions: in vivo; cited from earlier work
[9] = test system: SARS virus (Urbani Strain); conditions: in vivo, cited from earlier work
[10] = Clinical safety and tolerability in humans; format: in vivo, human
Source text: Favorable safety profiles have been seen for intraperitoneal, intravenous, and intranasal routes of administration of tdsRNA.

[11] = Synergy of rintatolimod with antiviral and antiproliferative drugs
Source text: These interferons include rIFN-α-2a, rIFN-β-1b, rIFN-γ.

H5N1 influenza viruses = conditions: in vivo; cited from earlier work
Ebola Virus = conditions: in vivo, 6 mg/kg
[12] = test system: SARS-CoV-2 (strain USA-WA1/2020); assay: microbe, parasite or virus in culture; format: cell-based
human CoV strain OC43 = conditions: Strain OC43/BS-C-1 Kidney cells (African Green Monkey); inhibition of CPE; cited from earlier work
TLR3 = TLR3 agonist selectivity versus RNA helicase sensors (MDA5, RIG-I); conditions: versus TLR-3 independent pathways (MDA5, RIG-I)
Source text: (§1) Of the tdsRNA of the disclosure, the tdsRNA of formula 1 and formula 5 is preferred. This is because mis-paired regions of base pair hydrogen bonding accelerate chain hydrolysis while preserving biological activity compared to, for example, formula 3 and formula 4. Also formula 1 and formula 5 had decreased toxicity and improved safety compared to the tdsRNA which has an absence of mis-pairing.

TNF-α = TNF-α induction
Source text: as §1

[13] = Development of antibodies to the dsRNA in usage
Source text: as §1

Q: Which EC50 [1] does the source give for NC(=O)c1ncn([C@@H]2O[C@H](CO)[C@@H](O)[C@H]2O)n1 [Ribavirin] here?
A: EC50: 50-100 μg/mL

Q: What about the EC50 [2] of the same molecule?
A: EC50: 4.7 μg/mL

Q: What about the “Survival (mice surviving/total)” value (SARS-CoV Strain v2163) of the same molecule?
A: (3/10) 65

Q: And the “clinically achievable serum concentrations” value [3]?
A: 3.7 µg/mL

Q: And the EC50 [4]?
A: EC50: 5.3 μg/mL

Q: And the IC100 [5]?
A: IC100: 5,000 μg/mL

Q: For rIn.r(C12U)n [Rintatolimod], which “cross-reactive IgA antibody formation against avian H5N1 and H7N9 influenza hemagglutinins” value [6] is on record?
A: induced cross-reactive IgA antibody formation

Q: And the “tolerability of combinational use with FluMist” value [6]?
A: well tolerated

Q: And the Survival (Mouse Hepatitis CoV MHV)?
A: increased survival

Q: And the “tolerability of dosage level” value ([7]; 700 mg in an average weight human (70 kg), equivalent to 10 mg/kg)?
A: generally well-tolerated

Q: What about the tolerability administered intravenously ([7]; Chronic Fatigue Syndrome (CFS) patients, placebo-controlled trials) of the same molecule?
A: generally well-tolerated

Q: And the “cytotoxic / cellular toxicity” value ([8]; 0.5 mg/mL)?
A: 0%

Q: What about the “cytotoxic / cellular toxicity” value ([8]; 1.5 mg/mL) of the same molecule?
A: 0%

Q: What about the cytotoxic ([8]; 4.5 mg/mL) of the same molecule?
A: 12%

Q: What about the cytotoxic ([8]; 10 mg/mL) of the same molecule?
A: 47%

Q: And the “Vaccine specific salivary IgA and serum IgG antibodies” value (H5N1 influenza virus)?
A: detected after the second immunization

Q: What about the “protection from challenge infection with the homologous virus” value (H5N1 influenza virus) of the same molecule?
A: completely protected

Q: What about the “serum neutralizing antibody activity against homologous and heterologous H5N1 influenza virus” value (H5N1 influenza virus) of the same molecule?
A: developed serum neutralizing anti-body activity

Q: What about the “lung scores and weight loss” value (SARS-CoV Strain v2163; 10 mg/kg/day) of the same molecule?
A: significantly reduced

Q: And the Survival (SARS-CoV Strain v2163)?
A: 100%

Q: And the “Survival (mice surviving/total)” value (SARS-CoV Strain v2163)?
A: 10/10 and (10/10)

Q: What about the “decline of virus in the lungs compared with untreated animals” value (SARS-CoV Strain v2163) of the same molecule?
A: more rapid decline of virus in the lungs

Q: What about the “Drug Dose giving reduction of virus lung titers below level of detection on Day 3” value ([9]; ip) of the same molecule?
A: 10 mg/kg

Q: And the “SARS virus (Urbani Strain) titers in the lungs” value [9]?
A: Complete inhibition to below detectable levels; also recorded: reduced virus lung titers to below detectable limits

Q: And the drug-related deaths ([10]; clinical trials, over 1,200 patients)?
A: no drug-related deaths

Q: What about the “tolerability in clinical trials” value ([10]; over 1,200 patients, over 100,000 doses) of the same molecule?
A: well-tolerated

Q: And the “serious adverse events compared to placebo” value ([10]; two placebo-controlled, randomized studies)?
A: no increase

Q: And the “synergy with α, β, and γ interferons, antiviral indication” value ([11]; HIV/AIDS, rIFN-α-2a, rIFN-β-1b, rIFN-γ)?
A: synergy; also recorded: synergistic

Q: And the “synergy with small molecule antiviral drugs” value ([11]; Influenza (oseltamivir, zanamivir), HIV/AIDS (abacavir, zidovudine, zalcitabine, didanosine, stavudine, efavirenz, indinavir, ritonavir, nelfinavir, amprenavir, ribavirin))?
A: synergy; also recorded: synergistic

Q: And the “synergy, antiproliferative (cancer) indications” value ([11]; interferons (nIFN-α, rIFN-α-2a, nIFN-β, rIFN-β-1b, nIFN-γ), IL-2, Anti-PD-L1)?
A: synergistic

Q: And the “antigen specific IgA response in the nasal mucosa” value (H5N1 influenza viruses)?
A: robust antigen specific IgA response

Q: And the “protection against challenge with homologous and heterologous H5N1 influenza viruses” value (H5N1 influenza viruses)?
A: protected

Q: What about the Survival (Ebola Virus) of the same molecule?
A: 100%

Q: Which results are given for CCC(CC)COC(=O)[C@H](C)N[P@](=O)(OC[C@H]1O[C@@](C#N)(c2ccc3c(N)ncnn23)[C@H](O)[C@@H]1O)Oc1ccccc1 [Remdesivir]?
A: Log10 CCID50 virus per 0.2 mL ([12]; 0.001 μg/mL): 4.30; Log10 CCID50 virus per 0.2 mL ([12]; 0.01 μg/mL): 3.67; Log10 CCID50 virus per 0.2 mL ([12]; 0.1 μg/mL): 3.00; Log10 CCID50 virus per 0.2 mL ([12]; 1 μg/mL): 3.00; EC90 ([12]; Severe acute respiratory syndrome coronavirus 2, read-out: EC90 (concentration to reduce virus yield by 1 log10)): 0.01 µg/mL (≈ 0.0166 µM)

Q: For “Polyribosinic-Polyribocytidylic Acid Stabilized with Poly-L-lysine, in Carboxymethylcellulose [Poly ICLC]”, which EC50 (human CoV strain OC43) is on record?
A: EC50: >100 μg/mL

Q: For rIn.r(CxU)n [formula 1], which TLR3 agonist selectivity (TLR3) is on record?
A: selective TLR3 agonist

Q: What about the TNF-α induction (TNF-α) of the same molecule?
A: does not induce TNF-α

Q: What about the development of antibodies [13] of the same molecule?
A: no development of antibodies

Q: Which results are given for rugged dsRNA [formula 5]?
A: TLR3 agonist selectivity (TLR3): selective TLR3 agonist; TNF-α induction (TNF-α): does not induce TNF-α; development of antibodies [13]: no development of antibodies

Q: With rIn.rCn [formula 4] as the molecule, how does the TLR3 agonist selectivity (TLR3) read?
A: non-selective

Q: And the TNF-α induction (TNF-α)?
A: high levels
